Experimental data taken from US6737383B1, “Herbicidal oxadiazolidines” (priority 1999, dated 2004).

Experiments:
pigweed = test: Test B pre/postemergence pigweed; assay type: in vivo, Amaranthus retroflexus
Outline: (§1)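 Response is a visual 0-to-10 score relative to untreated plants, where 0 means no effect and 10 means complete control, taken twelve to sixteen days after application. Treatments went onto soil at planting and onto foliage of 1- to 4-leaf plants, using a surfactant-containing non-phytotoxic solvent.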

surinam grass = test: Test B pre/postemergence surinam grass; assay type: in vivo, Brachiaria decumbens
Outline: as §1

blackgrass = test: Test B pre/postemergence blackgrass; assay type: in vivo, Alopecurus myosuroides
Outline: as §1

morningglory = test: Test B pre/postemergence morningglory; assay type: in vivo, Ipomoea hederacea
Outline: as §1

duck salad = test: Test B flood test duck salad; assay type: in vivo, Heteranthera limosa
Outline: (§2)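 Read-out is a visual response score from 0 (no effect) to 10 (complete control), assigned by comparison with untreated controls. Treatment was applied at the 2-leaf stage, and plants stayed in the greenhouse for twelve to sixteen days before scoring.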

corn = test: Test B pre/postemergence corn; assay type: in vivo, Zea mays
Outline: as §1

soybean = test: Test B pre/postemergence soybean; assay type: in vivo, Glycine max
Outline: as §1

velvetleaf = test: Test B pre/postemergence velvetleaf; assay type: in vivo, Abutilon theophrasti
Outline: as §1

purple nutsedge = test: Test B pre/postemergence purple nutsedge; assay type: in vivo, Cyperus rotundus
Outline: as §1

rape = test: Test B pre/postemergence rape; assay type: in vivo, Brassica napus
Outline: as §1

giant foxtail = test: Test B pre/postemergence giant foxtail; assay type: in vivo, Setaria faberii
Outline: as §1

wheat = test: Test B pre/postemergence wheat; assay type: in vivo, Triticum aestivum
Outline: as §1

wild oat = test: Test B pre/postemergence wild oat; assay type: in vivo, Avena fatua
Outline: as §1

crabgrass = test: Test B pre/postemergence crabgrass; assay type: in vivo, Digitaria sanguinalis
Outline: as §1

bedstraw = test: Test B pre/postemergence bedstraw; assay type: in vivo, Galium aparine
Outline: as §1

rice = test: Test B flood test rice; assay type: in vivo, Oryza sativa
Outline: as §2

[1] = Preemergence, Rate 62 g/ha, scale of 0 to 10 where 0 is no effect and 10 is complete control
[2] = Preemergence, Rate 250 g/ha, scale 0 to 10, 0 is no effect, 10 is complete control
[3] = Preemergence, Rate 500 g/ha, scale of 0 to 10 where 0 is no effect and 10 is complete control
[4] = Rate 62 g/ha, Postemergence, scale of 0 to 10 where 0 is no effect and 10 is complete control
[5] = Rate 125 g/ha, Postemergence, scale 0 to 10
[6] = Rate 125 g/ha, Preemergence, scale of 0 to 10 where 0 is no effect and 10 is complete control
[7] = Rate 500 g/ha, Postemergence, scale 0 to 10
[8] = Rate 62 g/ha, headed Pre-emergence (flood test species), scale 0 to 10 (0 no effect, 10 complete control)
[9] = Rate 125 g/ha, Pre-emergence, flood test species, scale 0 to 10 where 0 is no effect and 10 is complete control
[10] = Rate 250 g/ha, Pre-emergence, flood-test species, scale 0 to 10, 0 is no effect, 10 is complete control
[11] = Rate 500 g/ha, Pre-emergence, flood test species, scale 0 to 10 (0 no effect, 10 complete control)

`CC(C)N(C(=O)n1oc(=O)n(CC=Cc2ccccc2)c1=O)c1ccc(F)cc1` [Compound 210] was tested, and the “Redroot pigweed plant response rating” value (pigweed; [1]) was 0, the “Redroot pigweed plant response rating” value (pigweed; [2]) was 2 and the “Plant response rating, Redroot pigweed” value (pigweed; [3]) was 8. For the same molecule, the “Redroot pigweed plant response rating” value (pigweed; [4]) was 0, the “Redroot pigweed plant response rating” value (pigweed; [5]) was 0 and the “Redroot pigweed plant response rating” value (pigweed; [6]) was 0. For the same molecule, the “Plant response rating (0 to 10; 0 is no effect, 10 is complete control), Redroot pigweed” value (pigweed; Rate 250 g/ha, Postemergence) was 2, the “Redroot pigweed plant response rating” value (pigweed; [7]) was 6 and the “B. signalgrass plant response rating” value (surinam grass; [1]) was 0. The “B. signalgrass plant response rating” value (surinam grass; [2]) was 0, the “Plant response rating, B. signalgrass” value (surinam grass; [3]) was 0 and the “B. signalgrass plant response rating” value (surinam grass; [4]) was 0. For the same molecule, the “B. signalgrass plant response rating” value (surinam grass; Rate 125 g/ha, Postemergence, scale 0 (no effect) to 10 (complete control)) was 0, the “B. signalgrass plant response rating” value (surinam grass; [6]) was 0 and the “Plant response rating (0 to 10; 0 is no effect, 10 is complete control), B. signalgrass” value (surinam grass; Rate 250 g/ha, Postemergence) was 0. For the same molecule, the “B. signalgrass plant response rating” value (surinam grass; Rate 500 g/ha, Postemergence, scale 0 to 10, 0 no effect, 10 complete control) was 0, the “Blackgrass plant response rating” value (blackgrass; [1]) was 0 and the “Blackgrass plant response rating” value (blackgrass; [2]) was 0. The “Plant response rating, Blackgrass” value (blackgrass; [3]) was 4, the “Blackgrass plant response rating” value (blackgrass; [4]) was 0 and the “Blackgrass plant response rating” value (blackgrass; [5]) was 0. The “Blackgrass plant response rating” value (blackgrass; [6]) was 0, the “Plant response rating (0 to 10; 0 is no effect, 10 is complete control), Blackgrass” value (blackgrass; Rate 250 g/ha, Postemergence) was 0 and the “Blackgrass plant response rating” value (blackgrass; [7]) was 2. For the same molecule, the “Morningglory plant response rating” value (morningglory; [1]) was 0, the “Morningglory plant response rating” value (morningglory; [2]) was 0 and the “Plant response rating, Morningglory” value (morningglory; [3]) was 0. The “Morningglory plant response rating” value (morningglory; [4]) was 2, the “Morningglory plant response rating” value (morningglory; [5]) was 2 and the “Morningglory plant response rating” value (morningglory; [6]) was 0. The “Plant response rating (0 to 10; 0 is no effect, 10 is complete control), Morningglory” value (morningglory; Rate 250 g/ha, Postemergence) was 3, the “Morningglory plant response rating” value (morningglory; [7]) was 7 and the “Ducksalad plant response rating” value (duck salad; [8]) was 0. For the same molecule, the “Ducksalad plant response rating” value (duck salad; [9]) was 0, the “Ducksalad plant response rating” value (duck salad; [10]) was 0 and the “Ducksalad plant response rating” value (duck salad; [11]) was 0. For the same molecule, the “Corn plant response rating” value (corn; [1]) was 0, the “Corn plant response rating” value (corn; [2]) was 0 and the “Plant response rating, Corn” value (corn; [3]) was 0. For the same molecule, the “Corn plant response rating” value (corn; [4]) was 0, the “Corn plant response rating” value (corn; [5]) was 0 and the “Corn plant response rating” value (corn; [6]) was 0. The “Plant response rating (0 to 10; 0 is no effect, 10 is complete control), Corn” value (corn; Rate 250 g/ha, Postemergence) was 0, the “Corn plant response rating” value (corn; [7]) was 0 and the “Soybean plant response rating” value (soybean; [1]) was 0. The “Soybean plant response rating” value (soybean; [2]) was 0, the “Plant response rating, Soybean” value (soybean; [3]) was 0 and the “Soybean plant response rating” value (soybean; [4]) was 1. The “Soybean plant response rating” value (soybean; [5]) was 1, the “Soybean plant response rating” value (soybean; [6]) was 0 and the “Plant response rating (0 to 10; 0 is no effect, 10 is complete control), Soybean” value (soybean; Rate 250 g/ha, Postemergence) was 1. The “Soybean plant response rating” value (soybean; [7]) was 3, the “Velvetleaf plant response rating” value (velvetleaf; [1]) was 0 and the “Velvetleaf plant response rating” value (velvetleaf; [2]) was 0. For the same molecule, the “Plant response rating, Velvetleaf” value (velvetleaf; [3]) was 0, the “Velvetleaf plant response rating” value (velvetleaf; [4]) was 0 and the “Velvetleaf plant response rating” value (velvetleaf; [5]) was 0. For the same molecule, the “Velvetleaf plant response rating” value (velvetleaf; [6]) was 0, the “Plant response rating (0 to 10; 0 is no effect, 10 is complete control), Velvetleaf” value (velvetleaf; Rate 250 g/ha, Postemergence) was 2 and the “Nutsedge plant response rating” value (purple nutsedge; [1]) was 0. For the same molecule, the “Nutsedge plant response rating” value (purple nutsedge; [2]) was 0, the “Plant response rating, Nutsedge” value (purple nutsedge; [3]) was 0 and the “Nutsedge plant response rating” value (purple nutsedge; [4]) was 0. For the same molecule, the “Nutsedge plant response rating” value (purple nutsedge; [5]) was 0, the “Nutsedge plant response rating” value (purple nutsedge; [6]) was 0 and the “Plant response rating (0 to 10; 0 is no effect, 10 is complete control), Nutsedge” value (purple nutsedge; Rate 250 g/ha, Postemergence) was 0. For the same molecule, the “Nutsedge plant response rating” value (purple nutsedge; [7]) was 0, the “Rape plant response rating” value (rape; [1]) was 0 and the “Rape plant response rating” value (rape; [2]) was 0. The “Plant response rating, Rape” value (rape; [3]) was 3, the “Rape plant response rating” value (rape; [4]) was 0 and the “Rape plant response rating” value (rape; [5]) was 0. The “Rape plant response rating” value (rape; [6]) was 0, the “Plant response rating (0 to 10; 0 is no effect, 10 is complete control), Rape” value (rape; Rate 250 g/ha, Postemergence) was 0 and the “Rape plant response rating” value (rape; [7]) was 0. The “Giant foxtail plant response rating” value (giant foxtail; [1]) was 0, the “Giant foxtail plant response rating” value (giant foxtail; [2]) was 3 and the “Plant response rating, Giant foxtail” value (giant foxtail; [3]) was 5. The “Giant foxtail plant response rating” value (giant foxtail; [4]) was 0, the “Giant foxtail plant response rating” value (giant foxtail; [5]) was 0 and the “Giant foxtail plant response rating” value (giant foxtail; [6]) was 0. For the same molecule, the “Plant response rating (0 to 10; 0 is no effect, 10 is complete control), Giant foxtail” value (giant foxtail; Rate 250 g/ha, Postemergence) was 0, the “Giant foxtail plant response rating” value (giant foxtail; [7]) was 0 and the “Wheat plant response rating” value (wheat; [1]) was 0. The “Wheat plant response rating” value (wheat; [2]) was 0, the “Plant response rating, Wheat” value (wheat; [3]) was 0 and the “Wheat plant response rating” value (wheat; [4]) was 0. For the same molecule, the “Wheat plant response rating” value (wheat; [5]) was 0, the “Wheat plant response rating” value (wheat; [6]) was 0 and the “Plant response rating (0 to 10; 0 is no effect, 10 is complete control), Wheat” value (wheat; Rate 250 g/ha, Postemergence) was 0. The “Wild oats plant response rating” value (wild oat; [1]) was 0, the “Wild oats plant response rating” value (wild oat; [2]) was 2 and the “Plant response rating, Wild oats” value (wild oat; [3]) was 2. The “Wild oats plant response rating” value (wild oat; [4]) was 0, the “Wild oats plant response rating” value (wild oat; [5]) was 0 and the “Wild oats plant response rating” value (wild oat; [6]) was 0. For the same molecule, the “Plant response rating (0 to 10; 0 is no effect, 10 is complete control), Wild oats” value (wild oat; Rate 250 g/ha, Postemergence) was 0, the “Crabgrass plant response rating” value (crabgrass; [1]) was 0 and the “Crabgrass plant response rating” value (crabgrass; [2]) was 3. For the same molecule, the “Plant response rating, Crabgrass” value (crabgrass; [3]) was 8, the “Crabgrass plant response rating” value (crabgrass; [4]) was 0 and the “Crabgrass plant response rating” value (crabgrass; [5]) was 0. The “Crabgrass plant response rating” value (crabgrass; [6]) was 0, the “Plant response rating (0 to 10; 0 is no effect, 10 is complete control), Crabgrass” value (crabgrass; Rate 250 g/ha, Postemergence) was 0 and the “Crabgrass plant response rating” value (crabgrass; [7]) was 0. For the same molecule, the “Bedstraw plant response rating” value (bedstraw; [1]) was 0, the “Bedstraw plant response rating” value (bedstraw; [2]) was 0 and the “Plant response rating, Bedstraw” value (bedstraw; [3]) was 0. The “Bedstraw plant response rating” value (bedstraw; [4]) was 0, the “Bedstraw plant response rating” value (bedstraw; [5]) was 2 and the “Bedstraw plant response rating” value (bedstraw; [6]) was 0. For the same molecule, the “Plant response rating (0 to 10; 0 is no effect, 10 is complete control), Bedstraw” value (bedstraw; Rate 250 g/ha, Postemergence) was 4, the “Rice plant response rating” value (rice; [8]) was 0 and the “Rice plant response rating” value (rice; [9]) was 0. For the same molecule, the “Rice plant response rating” value (rice; [10]) was 0 and the “Rice plant response rating” value (rice; [11]) was 0.
